Source: ChEMBL document CHEMBL1795231, “Inhibitors of histone demethylases” (Bioorg Med Chem, 2011)
Blank lines part the entries; values can stand above or below the molecule they belong to.

Experiments:
[1] = biological target: Lysine-specific histone demethylase 1A (Homo sapiens, UniProt O60341)
[2] = biological target: T1, Lysine-specific demethylase 4E (Homo sapiens, UniProt B2RXH2)
T1 sequence (B2RXH2 whole entry): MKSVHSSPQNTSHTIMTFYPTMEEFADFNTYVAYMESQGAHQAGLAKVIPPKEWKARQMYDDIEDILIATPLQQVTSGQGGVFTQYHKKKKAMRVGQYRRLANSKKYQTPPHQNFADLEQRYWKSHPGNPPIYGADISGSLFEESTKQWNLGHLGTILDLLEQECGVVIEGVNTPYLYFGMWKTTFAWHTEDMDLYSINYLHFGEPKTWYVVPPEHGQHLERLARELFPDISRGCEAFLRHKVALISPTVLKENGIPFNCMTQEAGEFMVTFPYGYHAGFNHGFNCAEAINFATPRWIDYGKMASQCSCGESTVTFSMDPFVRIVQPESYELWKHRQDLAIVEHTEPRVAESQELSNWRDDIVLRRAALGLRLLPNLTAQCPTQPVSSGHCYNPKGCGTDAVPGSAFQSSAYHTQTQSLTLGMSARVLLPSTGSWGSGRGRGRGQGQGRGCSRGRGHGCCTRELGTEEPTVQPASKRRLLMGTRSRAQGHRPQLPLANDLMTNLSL

[3] = biological target: T1, Lysine-specific demethylase 4E; remark: listed apart in the source
[4] = biological target: Hypoxia-inducible factor 1-alpha inhibitor (Homo sapiens, UniProt Q9NWT6); experiment: Inhibition of asparaginyl hydroxylase factor-inhibiting-HIF
Chain of Hypoxia-inducible factor 1-alpha inhibitor (Q9NWT6 whole entry): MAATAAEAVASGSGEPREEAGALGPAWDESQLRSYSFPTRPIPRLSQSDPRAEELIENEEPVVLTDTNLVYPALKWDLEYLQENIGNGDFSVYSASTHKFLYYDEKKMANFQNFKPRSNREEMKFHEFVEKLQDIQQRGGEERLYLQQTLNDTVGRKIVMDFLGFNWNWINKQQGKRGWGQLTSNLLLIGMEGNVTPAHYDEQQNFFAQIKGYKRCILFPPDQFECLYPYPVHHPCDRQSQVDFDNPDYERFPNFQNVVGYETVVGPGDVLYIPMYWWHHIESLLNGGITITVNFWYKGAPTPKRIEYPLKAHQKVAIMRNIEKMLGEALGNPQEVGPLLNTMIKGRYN

Egl nine homolog 1 = Egl nine homolog 1 (Homo sapiens, UniProt Q9GZT9); experiment: Inhibition of human PHD2
Chain of Egl nine homolog 1 (Q9GZT9 whole entry): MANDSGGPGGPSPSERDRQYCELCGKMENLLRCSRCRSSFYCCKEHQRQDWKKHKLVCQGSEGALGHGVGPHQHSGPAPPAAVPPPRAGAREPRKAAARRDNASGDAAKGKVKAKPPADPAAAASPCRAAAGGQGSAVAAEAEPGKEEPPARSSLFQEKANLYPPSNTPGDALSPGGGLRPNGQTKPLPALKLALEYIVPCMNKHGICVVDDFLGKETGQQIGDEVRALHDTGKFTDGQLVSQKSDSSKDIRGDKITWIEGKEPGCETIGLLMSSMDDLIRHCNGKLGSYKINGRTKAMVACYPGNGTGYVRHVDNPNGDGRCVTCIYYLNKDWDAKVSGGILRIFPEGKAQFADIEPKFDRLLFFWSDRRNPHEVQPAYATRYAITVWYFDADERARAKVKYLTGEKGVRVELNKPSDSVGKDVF

[5] = biological target: T1, Lysine-specific demethylase 4E; remark: listed apart in the source
[6] = biological target: T1, Lysine-specific demethylase 4E; remark: listed apart in the source
[7] = biological target: T1, Lysine-specific demethylase 4E; remark: listed apart in the source
[8] = biological target: T1, Lysine-specific demethylase 4E; experiment: Uncompetitive inhibition of JMJD2E relative to alpha-ketoglutarate

SMILES: CC(C)COc1ccc(Cl)cc1C1CC1N (stereo not given)
IC50 [1]: 9 µM

IC50 [2]: 200 µM
SMILES: O=C(O)C(=O)N[C@H](CSCc1ccccc1)C(=O)O

IC50 [2]: 200 µM
SMILES: COc1ccccc1CSC[C@@H](NC(=O)C(=O)O)C(=O)O

IC50 [3]: 4.8 µM
SMILES: O=C(NO)c1cccc(O)c1

Ki [4]: 83 µM
IC50 (Egl nine homolog 1): > 1 mM
SMILES: O=C(O)C(=O)N[C@H](CCc1ccccc1)C(=O)O

IC50 [2]: 5 µM
SMILES: CC(C)(C)c1ccc(S(=O)(=O)Oc2ccc(C[C@@H](NC(=O)C(=O)O)C(=O)O)cc2)cc1

IC50 [2]: 5 µM
SMILES: O=C(O)C(=O)N[C@H](Cc1ccc(OS(=O)(=O)c2ccc(F)cc2)cc1)C(=O)O

IC50 [5]: 5.4 µM
SMILES: O=C(O)C(=O)N[C@H](Cc1ccc(OS(=O)(=O)c2ccc(Br)cc2)cc1)C(=O)O

SMILES: O=c1cc(-c2ccccc2)oc2cc(O)c(O)c(O)c12 [BAICALEIN]
IC50 [6]: 3 µM
Ki [7]: 4.33 µM

Ki [8]: 1980 nM
SMILES: C[C@@](Cc1ccc(O)c(O)c1)(NN)C(=O)O [CARBIDOPA]

Ki [7]: 1.92 µM
SMILES: Oc1ccc(C2CNCCc3c2cc(O)c(O)c3Cl)cc1 (stereo not given) [FENOLDOPAM]

SMILES: CC1(C)CCC2=C(O1)c1ccccc1C(=O)C2=O [LAPACHONE]
IC50 [6]: 3 µM
Ki [7]: 3.55 µM
